Measurements: article PMC7041903, “Isothermal Titration Calorimetry Enables Rapid Characterization of Enzyme Kinetics and Inhibition for the Human Soluble Epoxide Hydrolase” (Analytical Chemistry, 2019)

Legend:
[1] = molecular target: T1, human soluble epoxide hydrolase (hsEH) (Homo sapiens, UniProt P34913); assay: single-injection ITC enzyme kinetics (KM; saturation not reached); type: biochemical
T1 construct: gene EPHX2; C-terminal domain (CTD)
T1 sequence (P34913 230-555 limits assumed): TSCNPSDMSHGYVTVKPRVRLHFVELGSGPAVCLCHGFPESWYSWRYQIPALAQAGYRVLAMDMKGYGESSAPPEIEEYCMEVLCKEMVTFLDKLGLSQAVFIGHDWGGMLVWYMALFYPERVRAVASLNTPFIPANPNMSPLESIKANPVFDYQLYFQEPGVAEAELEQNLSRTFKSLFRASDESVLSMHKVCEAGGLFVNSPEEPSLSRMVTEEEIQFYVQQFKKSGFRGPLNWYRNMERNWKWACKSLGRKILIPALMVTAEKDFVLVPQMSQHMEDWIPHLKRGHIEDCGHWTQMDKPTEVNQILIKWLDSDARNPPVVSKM

[2] = molecular target: T1, human soluble epoxide hydrolase (hsEH); assay: single-injection ITC enzyme kinetics (KM); type: biochemical

Row | Km [1] [µM] | Km [2] [µM] | Compound
1 | 46.6 ± 11 |  | CCCCC/C=C\C/C=C\C/C=C\CC1OC1CCCC(=O)O (stereo not shown) [5(6)EET]
2 |  | 23.1 ± 2.39 | CCCCC/C=C\C/C=C\CC1OC1C/C=C\CCCC(=O)O (stereo not shown) [8(9)EET]
3 |  | 9.74 ± 0.13 | CC/C=C\C/C=C\C/C=C\CC1OC1C/C=C\CCCC(=O)O (stereo not shown) [8(9)EpETE]
4 |  | 1.74 ± 0.2 | CCCCC/C=C\CC1OC1C/C=C\C/C=C\CCCC(=O)O (stereo not shown) [11(12)EET]
5 |  | 12.9 ± 1.94 | CCCCCC1OC1C/C=C\C/C=C\C/C=C\CCCC(=O)O (stereo not shown) [14(15)EET]
6 |  | 26.4 ± 4.05 | CCC1OC1C/C=C\C/C=C\C/C=C\C/C=C\CCCC(=O)O (stereo not shown) [17(18)EpETE]
7 |  | 26.6 ± 1.21 | CCC1OC1C/C=C\C/C=C\C/C=C\C/C=C\C/C=C\CCC(=O)O (stereo not shown) [19(20)EpDPE]
